The record followed here is patent US20100181035A1, “GLUCOSYLTRANSFERASES” (UNIVERSITY OF YORK, priority 2003, published 2010).

Structures are written as SMILES.

Test [1] concerns the target T1, glucosyltransferase 72E1 (UGT72E1) (Arabidopsis thaliana, UniProt Q94A84).
T1 construct: made in house; host or cells: E. coli
T1 sequence (Q94A84 1-487): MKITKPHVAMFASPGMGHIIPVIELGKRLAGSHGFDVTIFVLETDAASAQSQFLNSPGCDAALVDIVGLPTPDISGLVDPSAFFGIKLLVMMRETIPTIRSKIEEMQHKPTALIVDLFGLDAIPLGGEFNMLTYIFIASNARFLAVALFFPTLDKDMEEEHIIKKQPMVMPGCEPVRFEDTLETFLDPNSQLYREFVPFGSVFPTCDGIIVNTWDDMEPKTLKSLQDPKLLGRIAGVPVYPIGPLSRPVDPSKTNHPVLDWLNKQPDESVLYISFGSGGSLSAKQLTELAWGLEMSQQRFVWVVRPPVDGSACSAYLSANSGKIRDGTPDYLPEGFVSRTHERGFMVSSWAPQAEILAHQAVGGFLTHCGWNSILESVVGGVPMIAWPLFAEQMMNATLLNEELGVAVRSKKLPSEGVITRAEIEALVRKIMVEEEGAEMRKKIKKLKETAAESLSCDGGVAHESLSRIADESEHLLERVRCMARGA
As to the kind of experiment: Glucosyltransferase activity assay with recombinant UGT72E1, HPLC analysis. Format: biochemical. To be noted: substrate glucosylation; 2 μg enzyme, 1 mM phenolic substrate, 5 mM UDP-glucose, 100 mM Tris-HCl pH 7.0, 30° C., 1 h; HPLC peak area. On the procedure: Recombinant UGT72E1 was expressed and purified from E. coli as described previously (Lim et al., 2001, J. Biol. Chem. 276, 4344-4349). The enzyme (2 μg) was incubated with 1 mM phenolic substrates, 5 mM UDP-glucose, 100 mM Tris-HCl, pH 7.0 in a total volume 200 μl. The reaction mix was incubated at 30° C. for 1 h and was analysed using HPLC subsequently.
Coniferyl alcohol: 10-25% acetonitrile (0.1% TFA), 306 nm Sinapyl alcohol: 10-25% acetonitrile (0.1% TFA), 285 nm p-coumaryl alcohol: 10-25% acetonitrile (0.1% TFA), 311 nm coniferyl aldehyde: 10-47% acetonitrile (0.1% TFA), 311 nm sinapyl aldehyde: 10-47% acetonitrile (0.1% TFA), 280 nm p-coumaryl aldehyde: 10-47% acetonitrile (0.1% TFA), 315 nm

Test [2] has as its target T2, glucosyltransferase 72E2 (UGT72E2) (Arabidopsis thaliana, UniProt Q9LVR1).
T2 sequence (Q9LVR1 1-481): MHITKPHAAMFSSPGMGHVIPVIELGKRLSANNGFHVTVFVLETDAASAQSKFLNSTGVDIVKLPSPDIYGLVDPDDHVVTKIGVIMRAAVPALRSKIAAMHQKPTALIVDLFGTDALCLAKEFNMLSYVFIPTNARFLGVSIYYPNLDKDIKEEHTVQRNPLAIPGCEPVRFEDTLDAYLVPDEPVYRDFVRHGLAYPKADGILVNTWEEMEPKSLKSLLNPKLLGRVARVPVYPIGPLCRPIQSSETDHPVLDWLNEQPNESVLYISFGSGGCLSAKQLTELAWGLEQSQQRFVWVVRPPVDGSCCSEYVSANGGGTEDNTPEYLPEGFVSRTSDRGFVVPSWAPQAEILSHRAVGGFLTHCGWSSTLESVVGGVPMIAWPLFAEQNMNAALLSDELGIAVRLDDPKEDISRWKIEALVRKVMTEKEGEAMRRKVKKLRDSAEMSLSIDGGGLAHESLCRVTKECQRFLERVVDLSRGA
As to the kind of experiment: Glucosyltransferase activity assay with 72E2, HPLC analysis. Format: biochemical. To be noted: substrate glucosylation; HPLC peak area; conditions for UGT72E1: 1 mM substrate, 5 mM UDP-glucose, pH 7.0, 30° C., 1 h.

Consider `COc1cc(/C=C/CO)ccc1O` [Coniferyl alcohol], for which the “Activity (area, uv × sec) 72E1” value in test [1] stood at 3225766 uv × sec. Also, the “Activity (area, uv × sec) 72E2” value in test [2] was determined as 29756923 uv × sec.

For the compound `COc1cc(/C=C/C=O)ccc1O` [Coniferyl aldehyde], in test [1], the “Activity (area, uv × sec) 72E1” value is given as 21950129 uv × sec. Further, the “Activity (area, uv × sec) 72E2” value in test [2] is 5068215 uv × sec.

Turning to `COc1cc(/C=C/CO)cc(OC)c1O` [Sinapyl alcohol], the “Activity (area, uv × sec) 72E1” value in test [1] turned out to be 0 uv × sec. Besides, the “Activity (area, uv × sec) 72E2” value in test [2] came to 3339410 uv × sec.

Regarding `COc1cc(/C=C/C=O)cc(OC)c1O` [Sinapyl aldehyde], the “Activity (area, uv × sec) 72E1” value in test [1] amounted to 13655427 uv × sec. In test [2], the “Activity (area, uv × sec) 72E2” value is 37002362 uv × sec.

As to `OC/C=C/c1ccc(O)cc1` [p-coumaryl alcohol], the “Activity (area, uv × sec) 72E1” value in test [1] is recorded as 0 uv × sec. For the same compound, the “Activity (area, uv × sec) 72E2” value in test [2] amounted to 0 uv × sec.

`O=C/C=C/c1ccc(O)cc1` [p-coumaryl aldehyde]: the “Activity (area, uv × sec) 72E1” value in test [1] is given as 9243651 uv × sec. The “Activity (area, uv × sec) 72E2” value in test [2] turned out to be 2612331 uv × sec.
